# Data as given in ChEMBL document CHEMBL4673230, “Total Synthesis of Natural Lembehyne C and Investigation of Its Cytotoxic Properties” (J Nat Prod, 2020).
# Experiments:
# Jurkat [1] = assay: Cytotoxicity against human Jurkat cells assessed as reduction in cell viability by 7-AAD staining based flow cytometric analysis; assay type: functional
# K562 = assay: Cytotoxicity against human K562 cells assessed as reduction in cell viability by 7-AAD staining based flow cytometric analysis; assay type: functional
# U-937 = assay: Cytotoxicity against human U937 cells assessed as reduction in cell viability by 7-AAD staining based flow cytometric analysis; assay type: functional
# HL-60 = assay: Cytotoxicity against human HL-60 cells assessed as reduction in cell viability by 7-AAD staining based flow cytometric analysis; assay type: functional
# Jurkat [2] = assay: Induction of apoptosis in human Jurkat cells assessed as viable cells at 400 nM after 24 hrs by Annexin V/7-AAD staining.based flow cytometric analysis relative to control; assay type: functional; conditions: read-out: Activity
# Jurkat [3] = assay: Induction of apoptosis in human Jurkat cells assessed as late apoptotic cells at 400 nM after 24 hrs by Annexin V/7-AAD staining.based flow cytometric analysis relative to control; assay type: functional
# Jurkat [4] = assay: Induction of apoptosis in human Jurkat cells assessed as necrotic cells at 400 nM after 24 hrs by Annexin V/7-AAD staining.based flow cytometric analysis relative to control; assay type: functional
# Jurkat [5] = assay: Induction of apoptosis in human Jurkat cells assessed as early apoptotic cells at 200 nM after 24 hrs by Annexin V/7-AAD staining.based flow cytometric analysis relative to control; assay type: functional
# Jurkat [6] = assay: Induction of apoptosis in human Jurkat cells assessed as necrotic cells at 200 nM after 24 hrs by Annexin V/7-AAD staining.based flow cytometric analysis relative to control; assay type: functional
# Jurkat [7] = assay: Induction of apoptosis in human Jurkat cells assessed as early apoptotic cells at 100 nM after 24 hrs by Annexin V/7-AAD staining.based flow cytometric analysis relative to control; assay type: functional
# Jurkat [8] = assay: Induction of apoptosis in human Jurkat cells assessed as late apoptotic cells at 100 nM after 24 hrs by Annexin V/7-AAD staining.based flow cytometric analysis relative to control; assay type: functional
# Jurkat [9] = assay: Induction of apoptosis in human Jurkat cells assessed as early apoptotic cells at 50 nM after 24 hrs by Annexin V/7-AAD staining.based flow cytometric analysis relative to control; assay type: functional
# Jurkat [10] = assay: Induction of apoptosis in human Jurkat cells assessed as late apoptotic cells at 50 nM after 24 hrs by Annexin V/7-AAD staining.based flow cytometric analysis relative to control; assay type: functional
# Jurkat [11] = assay: Induction of apoptosis in human Jurkat cells assessed as necrotic cells at 50 nM after 24 hrs by Annexin V/7-AAD staining.based flow cytometric analysis relative to control; assay type: functional
# Jurkat [12] = assay: Induction of cell cycle arrest in human Jurkat cells assessed as accumulation at G1 phase at 400 nM after 24 hrs by Guava Cell Cycle reagent based flow cytometric analysis relative to control; assay type: functional
# Jurkat [13] = assay: Induction of cell cycle arrest in human Jurkat cells assessed as accumulation at G1 phase at 200 nM after 24 hrs by Guava Cell Cycle reagent based flow cytometric analysis relative to control; assay type: functional
# Jurkat [14] = assay: Induction of cell cycle arrest in human Jurkat cells assessed as accumulation at G1 phase at 50 nM after 24 hrs by Guava Cell Cycle reagent based flow cytometric analysis relative to control; assay type: functional
# Jurkat [15] = assay: Induction of cell cycle arrest in human Jurkat cells assessed as accumulation at S phase at 400 nM after 24 hrs by Guava Cell Cycle reagent based flow cytometric analysis relative to control; assay type: functional
# Jurkat [16] = assay: Induction of cell cycle arrest in human Jurkat cells assessed as accumulation at S phase at 100 nM after 24 hrs by Guava Cell Cycle reagent based flow cytometric analysis relative to control; assay type: functional
# Jurkat [17] = assay: Induction of cell cycle arrest in human Jurkat cells assessed as accumulation at G2 phase at 200 nM after 24 hrs by Guava Cell Cycle reagent based flow cytometric analysis relative to control; assay type: functional
# Jurkat [18] = assay: Induction of cell cycle arrest in human Jurkat cells assessed as accumulation at G2 phase at 100 nM after 24 hrs by Guava Cell Cycle reagent based flow cytometric analysis relative to control; assay type: functional
# Jurkat [19] = assay: Induction of cell cycle arrest in human Jurkat cells assessed as accumulation at G2 phase at 50 nM after 24 hrs by Guava Cell Cycle reagent based flow cytometric analysis relative to control; assay type: functional
# Jurkat [20] = assay: Induction of cell cycle arrest in human Jurkat cells assessed as accumulation at sub-G1 phase at 200 nM after 24 hrs by Guava Cell Cycle reagent based flow cytometric analysis relative to control; assay type: functional
# Jurkat [21] = assay: Induction of cell cycle arrest in human Jurkat cells assessed as accumulation at sub-G1 phase at 100 nM after 24 hrs by Guava Cell Cycle reagent based flow cytometric analysis relative to control; assay type: functional
# Jurkat [22] = assay: Induction of cell cycle arrest in human Jurkat cells assessed as accumulation at sub-G1 phase at 50 nM after 24 hrs by Guava Cell Cycle reagent based flow cytometric analysis relative to control; assay type: functional
# Jurkat [23] = assay: Induction of cell cycle arrest in human Jurkat cells assessed as accumulation at G2/G1 phase at 100 nM after 24 hrs by Guava Cell Cycle reagent based flow cytometric analysis relative to control; assay type: functional
# Jurkat [24] = assay: Induction of cell cycle arrest in human Jurkat cells assessed as accumulation at super-G2 phase at 100 nM after 24 hrs by Guava Cell Cycle reagent based flow cytometric analysis relative to control; assay type: functional
# Jurkat [25] = assay: Induction of mitochondrial membrane potential loss in human Jurkat cells assessed as live cells at 200 nM after 4 hrs by MitoSense Red/7-AAD. flow cytometric analysis relative to control; assay type: functional
# Jurkat [26] = assay: Induction of mitochondrial membrane potential loss in human Jurkat cells assessed as early apoptotic cells at 400 nM after 4 hrs by MitoSense Red/7-AAD. flow cytometric analysis relative to control; assay type: functional
# Jurkat [27] = assay: Induction of ROS generation in human Jurkat cells assessed as apoptotic cells at 200 nM after 4 hrs by MitoSox Red/annexin V-CF488A staining based flow cytometric analysis (reference value: 3.18%); assay type: functional
# Jurkat [28] = assay: Induction of ROS generation in human Jurkat cells assessed as apoptotic cells with clear mitochondrial damages at 200 nM after 4 hrs by MitoSox Red/annexin V-CF488A staining based flow cytometric analysis (reference value: 0.39%); assay type: functional
# Jurkat [29] = assay: Induction of ROS generation in human Jurkat cells assessed as living undamaged cells at 200 nM after 2 hrs by MitoSox Red/annexin V-CF488A staining based flow cytometric analysis (reference value: 95.44%); assay type: functional
# Jurkat [30] = assay: Induction of ROS generation in human Jurkat cells assessed as apoptotic cells with clear mitochondrial damages at 200 nM after 24 hrs by MitoSox Red/annexin V-CF488A staining based flow cytometric analysis (reference value: 0.39%); assay type: functional
# Jurkat [31] = assay: Induction of ROS generation in human Jurkat cells assessed as living undamaged cells at 200 nM after 24 hrs by MitoSox Red/annexin V-CF488A staining based flow cytometric analysis (reference value: 95.44%); assay type: functional
# [32] = Effect on total JNK in human jurkat cells at 400 nM by magnetic bead based immunoassay; assay type: cell-based; conditions: 0.4 µM
# [33] = Effect on total AKT level in human jurkat cells at 400 nM by magnetic bead based immunoassay; assay type: cell-based; conditions: 0.4 µM
# [34] = Effect on total p70S6K level in human jurkat cells at 400 nM by magnetic bead based immunoassay; assay type: cell-based; conditions: 0.4 µM
# [35] = Effect on total STAT3 level in human jurkat cells at 400 nM by magnetic bead based immunoassay; assay type: cell-based; conditions: 0.4 µM
structure (smiles),measurement,setting,value
C#C[C@H](O)CCCCCCCCC/C=C\CC/C=C\CC/C=C\CCCCCCCCCCCCCCCC,IC50,Jurkat [1],161 nM
same,IC50,K562,373 nM
same,IC50,U-937,124 nM
same,IC50,HL-60,93 nM
same,viability at 0.4 µM,Jurkat [2],32.9%
same,Activity,Jurkat [3],50.24%
same,Activity,Jurkat [4],1.01%
same,Activity,Jurkat [5],13.2%
same,Activity,Jurkat [6],7.51%
same,Activity,Jurkat [7],12.63%
same,Activity,Jurkat [8],39.78%
same,Activity,Jurkat [9],14.25%
same,Activity,Jurkat [10],23.53%
same,Activity,Jurkat [11],2.4%
same,Activity,Jurkat [12],30.24%
same,Activity,Jurkat [13],33.86%
same,Activity,Jurkat [14],44.65%
same,Activity,Jurkat [15],31.5%
same,Activity,Jurkat [16],30.33%
same,Activity,Jurkat [17],8.65%
same,Activity,Jurkat [18],7.28%
same,Activity,Jurkat [19],5.09%
same,Activity,Jurkat [20],18.01%
same,Activity,Jurkat [21],13.99%
same,Activity,Jurkat [22],10.76%
same,Activity,Jurkat [23],1.94%
same,Activity,Jurkat [24],1.21%
same,Activity,Jurkat [25],95.64%
same,Activity,Jurkat [26],3.32%
same,Activity,Jurkat [27],3.67%
same,Activity,Jurkat [28],25.4%
same,Activity,Jurkat [29],70.77%
same,Activity,Jurkat [30],20.58%
same,Activity,Jurkat [31],33.64%
same,Activity,[32],Toxic
same,Activity,[33],Toxic
same,Activity,[34],Toxic
same,Activity,[35],Toxic
